Results on four molecules are retold here after paper PMC6536413, “Application of ultrasound‐guided cholecystocentesis to the evaluation of the metabolite profiling in bile of dogs and cynomolgus monkeys” (Pharmacology Research & Perspectives, 2019).

Marks after values point to notes of the source that are not given here.

The nature of data set [1]: Plasma pharmacokinetics of ATV and metabolites in BDC and UCC dogs (LC-MS/MS). The following applies: male, beagle, dog, po, 40 mg/kg, 40 mg/kg oral dose of ATV, ± standard deviation; for AUC: read-out: AUC0‐24h. The data set is classed as in vivo. The procedure:
(§1) Plasma samples were collected at 0.5, 1, 2, 4, 6, and 24 hours postdose via cephalic vein or indwelling cephalic catheter. At the 6‐ and 24‐hours postdose time points, dogs were sedated with propofol at 6 mg/kg through an indwelling cephalic catheter. The dogs were then positioned in a dorsal‐recumbency with head elevated. Heart rate, rhythm, and arterial oxygen saturation were monitored throughout the procedure. After shaving and aseptically preparing the abdominal skin immediately caudal to the xiphoid process, an ultrasound exam of the gallbladder and cranial abdomen was done using a Mylab30cv ultrasound system with 9‐3 MHz micro‐convex transducer (Esoate, Indianapolis, IN). A 21‐gauge, 1.5‐inch needle, attached to a 5‐mL syringe, was inserted percutaneously through the abdominal wall into the gallbladder lumen. Effort was made to completely empty the gallbladder by aspiration (typically, 2‐5 mL bile was obtained). The needle and syringe were withdrawn and the bile samples were immediately saved on dry ice for later analysis. Dogs were allowed to recover in their home cages. Both plasma and bile samples were stored at −20°C until analysis.
(§2) Plasma samples were collected from dogs and monkeys at 0.5, 1, 2, 4, 6, and 24 hours postdose. Bile samples were collected at 0‐2 hours, 2‐4 hours, 4‐6 hours, 6‐8 hours, and 8‐24 hours intervals. Both plasma and bile samples were stored at −20°C until analysis.
(§3) Standard curves and quality control (QC) samples defining the dynamic range of the bioanalytical method were prepared in commercially available control plasma and processed in the same fashion as the test samples. When dilutions were required, an aliquot of the sample was diluted into control plasma. […] The supernatant was then separated from the precipitated proteins after a 10‐minute centrifugation at 3500 rpm (2109× g) at 10°C and transferred to an autosampler 96‐well plate. An aliquot (10 µL) was injected onto the ultrahigh performance liquid chromatography (UHPLC) column for LC‐MS/MS‐based analysis. Samples from individual animals were not pooled prior to quantitative analysis.
(§4) The UHPLC system Nexera (Shimadzu, Japan) consisted of two pumps (LC30AD), a column heater (CTO‐30A), and an autosampler (SIL‐30AC) equipped with a cooling compartment that maintained samples at 15°C during analysis. The analytical column used was a BEH C18 2.1 mm × 50 mm, 1.7 µm (Waters Corporation, Milford, MA) at 50°C. The mobile phase, which consisted of 0.1% formic acid in water (A) and acetonitrile (B), was delivered at a flow rate of 0.6 mL/min. The initial conditions were 100% aqueous followed by 1‐minute gradient to 100% acetonitrile then hold for 0.4 minutes and back to initial conditions.
(§5) The UHPLC was interfaced to a Finnigan TSQ Quantum Ultra LC‐MS/MS tandem mass spectrometer (Thermo Electron Corporation) equipped with heated electrospray ionization (HESI‐II) interface operating in the positive ionization mode. Ultrahigh‐purity nitrogen was used as the sheath and auxiliary gases at flow rates of 55 L/h for sheath and 25 L/h for auxiliary. The desolvation temperature was 300°C and the source temperature was 350°C. The detection of each analyte was achieved through selected reaction monitoring. […]
(§6) The peak concentration (Cmax) and time for Cmax (Tmax) were recorded directly from experimental observations. The area under the curve from time 0 to 24 hours (AUC0‐24h) was calculated using a combination of linear and log trapezoidal summations.

Data set [2] can be described thus: Concentration of ATV and metabolites in monkey bile obtained by BDC and UCC (LC-MS/MS). The following applies: UCC monkeys, 4‐5 h, 30 mg/kg ATV orally, ± standard deviation. The data set is classed as in vivo, cynomolgus macaques.
Test in data set [3]: as above
The data set is classed as in vivo, cynomolgus macaques. The following applies: for Concentration in bile: BDC monkeys, 30 mg/kg ATV orally; for concentration at 24 h: male, cynomolgus, cynomolgus monkey, bile, po, 30 mg/kg. As to the method: (§7) Plasma and bile samples were collected. For bile collection monkeys were sedated with ketamine (8 mg/kg) and dexmedetomidine (0.05 mg/kg) intramuscularly. At the conclusion of the procedure, sedation was reversed with atipamezole (0.15 mg/kg) intramuscularly. All other procedures were the same as for the dog.
as §2, §3, §4, §5

The nature of data set [4]: Metabolite profile of ATV in dog bile (LC-MS, UV 254 nm). The following applies: based on the UV chromatograms. Type of data set: in vivo, beagle dogs.
Experimental: Dog bile samples obtained by cholecystocentesis were pooled across animals (n = 3). Samples were mixed with an equal volume of citrate buffer (100 mmol/L) to make the final buffer concentration of 50 mmol/L. The mixture was mixed by vortexing for 1 minute and then centrifuged at 12 000× g for 15 minutes. An aliquot (5‐10 μL) of the supernatant was injected onto the UHPLC column for LC‐MS/MS‐based analysis.
The metabolite profile was obtained using LTQ‐Orbitrap coupled with Accela UHPLC and PDA (ThermoScientific, San Jose, CA) and a CTC PAL autosampler equipped with a cooling stack that maintained samples at 4°C during analysis. A 20‐minute UHPLC method was developed. The column was Acquity UPLC HSS T3 (Waters, Milford, MA) 2.1 × 150 mm, 1.8 µm. The column was maintained at a temperature of 55°C. The mobile phase consisted of 0.1% formic acid in water (solvent A) and 0.1% formic acid in acetonitrile (solvent B) at a flowrate of 600 µL/min with the following linear gradient conditions: 5% A for 0.5 minutes, 20‐60% B over 14 minutes, 95% B over 3 minutes, and 5% B isocratic for 2 minutes. Instrument settings were as follows: m/z range: 100 to 1000, capillary temperature was set at 280°C, nitrogen sheath gas flow rate 80 (arbitrary units), auxiliary gas 20, spray voltage 4.0 kV, and tube lens offset 80 V. In addition, UV wavelength was monitored at 254 nm.
Data set [5] can be described thus: Plasma pharmacokinetics of ATV and metabolites in BDC and UCC monkeys (LC-MS/MS). The data set is classed as in vivo, cynomolgus macaques. The following applies: for Cmax / Tmax / AUC: male, cynomolgus, cynomolgus monkey, plasma, po, 30 mg/kg, 30 mg/kg oral dose of ATV, ± standard deviation; for AUC: read-out: AUC0‐24h; for plasma concentration: both the UCC and BDC monkey plasma samples, 30 mg/kg ATV orally. The procedure:
as §7, §2, §3, §4, §5, §6

Data set [6] can be described thus: Metabolite profile of ATV in monkey bile (LC-MS, UV 254 nm). The data set is classed as in vivo, cynomolgus macaques. The following applies: UV chromatograms.
A short description of data set [7]: Concentration of ATV and metabolites in dog bile obtained by BDC and UCC (LC-MS/MS). The data set is classed as in vivo, beagle dogs. The following applies: for Concentration in bile: BDC dogs, 40 mg/kg ATV orally, ± standard deviation; for concentration at 6 h / concentration at 24 h: male, beagle, dog, bile, po, 40 mg/kg. As to the method:
as §1, §2, §3, §4, §5

[8] abbreviates: 0‐2 h, n = 2 due to blocked/displaced cannulas.
Setting [9] is: 6‐8 h, n = 2 due to blocked/displaced cannulas.

Regarding `CC(C)c1c(C(=O)Nc2ccccc2O)c(-c2ccccc2)c(-c2ccc(F)cc2)n1CC[C@@H](O)C[C@@H](O)CC(=O)O` [2‐OH ATV, 2‐hydroxyatorvastatin], the Cmax – broadly, the peak of the concentration-time curve – in data set [1] (BDC dogs (n = 3)) was found to be 0.352 ± 0.28 µM; in data set [1] (UCC dogs (n = 3)) it was 0.215 ± 0.095 µM; in data set [5] (BDC monkeys (n = 4)), 0.055 ± 0.02 µM; in data set [5] (UCC monkeys (n = 3)), 0.031 ± 0.018 µM. The Tmax – broadly, the time from dosing to the highest level – in data set [1] (BDC dogs (n = 3)) is 2 h; in data set [1] (UCC dogs (n = 3)), 1.7 ± 0.6 h; in data set [5] (BDC monkeys (n = 4)) it was 9 ± 10.1 h; in data set [5] (UCC monkeys (n = 3)), 2 ± 1.7 h. Besides, the AUC in data set [1] (BDC dogs (n = 3)) amounted to 0.667 ± 0.203 µM·h; in data set [1] (UCC dogs (n = 3)) it was 0.736 ± 0.066 µM·h; in data set [5] (BDC monkeys (n = 4)), 0.664 ± 0.347 µM·h; in data set [5] (UCC monkeys (n = 3)) it was 0.057 ± 0.008 µM·h. Moreover, the Concentration in bile in data set [2] came to 334 ± 70 µM; in data set [3] (setting [8]), 112 µmol/L; in data set [3] (2‐4 h, ± standard deviation), 317 ± 66 µmol/L; in data set [3] (4‐6 h, ± standard deviation), 412 ± 302 µmol/L; in data set [3] (setting [9]) it was 306 µmol/L; in data set [3] (8‐24 h, ± standard deviation), 303 ± 151 µmol/L. In addition, the Concentration in bile in data set [7] (0‐2 h) worked out at 256 ± 284 µM; in data set [7] (2‐4 h), 690 ± 296 µM; in data set [7] (4‐6 h), 337 ± 266 µM; in data set [7] (6‐8 h), 168 ± 134 µM; in data set [7] (8‐24 h) it was 27 ± 19 µM. The concentration at 24 h came to 586 ± 127 µM in data set [3] and 63 ± 65 µM in data set [7]. Also, the “abundance of metabolite in bile” value in data set [4] and in data set [6] was “major oxidative metabolites” throughout. Moreover, the concentration at 6 h in data set [7] is 151 ± 53 µM.

With `CC(C)c1c(C(=O)Nc2ccccc2O)c(-c2ccccc2)c(-c2ccc(F)cc2)n1CC[C@@H]1C[C@@H](O)CC(=O)O1` [2‐OH ATV‐L, 2‐hydroxyatorvastatin lactone], the Concentration in bile in data set [2] turned out to be 73 ± 19 µM; in data set [3] (setting [8]), 36 µmol/L; in data set [3] (2‐4 h, ± standard deviation), 93 ± 57 µmol/L; in data set [3] (4‐6 h, ± standard deviation) it was 67 ± 35 µmol/L; in data set [3] (setting [9]), 52 µmol/L; in data set [3] (8‐24 h, ± standard deviation), 18 ± 19 µmol/L. For the same molecule, the concentration at 24 h in data set [3] was determined as 147 ± 44 µM. In addition, the Cmax in data set [5] (BDC monkeys (n = 4)) amounted to 0.024 ± 0.006 µM; in data set [5] (UCC monkeys (n = 3)) it was 0.039 ± 0.029 µM. Moreover, the time to peak (Tmax) in data set [5] (BDC monkeys (n = 4)) is 4 ± 1.6 h; in data set [5] (UCC monkeys (n = 3)), 1.3 ± 0.6 h. In addition, the results for the AUC in data set [5] (BDC monkeys (n = 4)) and in data set [5] (UCC monkeys (n = 3)) were 0.116 ± 0.045 µM·h and 0.035 ± 0.007 µM·h, respectively.

Turning to `CC(C)c1c(C(=O)Nc2ccc(O)cc2)c(-c2ccccc2)c(-c2ccc(F)cc2)n1CC[C@@H](O)C[C@@H](O)CC(=O)O` [4‐OH ATV, 4‐hydroxyatorvastatin], the figures for the Cmax in data set [1] (BDC dogs (n = 3)) and in data set [1] (UCC dogs (n = 3)) were 0.138 ± 0.12 µM and 0.082 ± 0.03 µM, respectively. The Tmax in data set [1] (BDC dogs (n = 3)) turned out to be 2.7 ± 1.2 h; in data set [1] (UCC dogs (n = 3)) it was 3.3 ± 1.2 h. In addition, the values for the AUC in data set [1] (BDC dogs (n = 3)) and in data set [1] (UCC dogs (n = 3)) were 0.293 ± 0.038 µM·h and 0.381 ± 0.128 µM·h, respectively. In addition, the Concentration in bile is 271 ± 185 µM in data set [2]; 56 µmol/L in data set [3] (setting [8]); 180 ± 68 µmol/L in data set [3] (2‐4 h, ± standard deviation); 207 ± 116 µmol/L in data set [3] (4‐6 h, ± standard deviation); 140 µmol/L in data set [3] (setting [9]); 181 ± 29 µmol/L in data set [3] (8‐24 h, ± standard deviation). Also, the Concentration in bile in data set [7] (0‐2 h) amounted to 501 ± 522 µM; in data set [7] (2‐4 h) it was 1342 ± 583 µM; in data set [7] (4‐6 h), 862 ± 472 µM; in data set [7] (6‐8 h), 558 ± 356 µM; in data set [7] (8‐24 h) it was 184 ± 97 µM. Moreover, the concentration at 24 h was 594 ± 39 µM in data set [3] and 262 ± 317 µM in data set [7]. In addition, the “abundance of metabolite in bile” value in data set [4] and in data set [6] was “major oxidative metabolites” throughout. Further, the plasma concentration entry in data set [5] is on record as “below the limits of quantitation”. Moreover, in data set [7], the concentration at 6 h was determined as 279 ± 60 µM.

`CC(C)c1c(C(=O)Nc2ccc(O)cc2)c(-c2ccccc2)c(-c2ccc(F)cc2)n1CC[C@@H]1C[C@@H](O)CC(=O)O1` [4‐OH ATV‐L, 4‐hydroxyatorvastatin lactone]: the Concentration in bile in data set [2] was 9 ± 5 µM; in data set [3] (setting [8]), 2 µmol/L; in data set [3] (2‐4 h, ± standard deviation), 6 ± 3 µmol/L; in data set [3] (4‐6 h, ± standard deviation), 4 ± 2 µmol/L; in data set [3] (setting [9]) it was 3 µmol/L; in data set [3] (8‐24 h, ± standard deviation), 2 ^b μmol/L. In addition, in data set [3], the concentration at 24 h is 19 ± 3 µM. For the same molecule, the plasma concentration result in data set [5] is on record as “below the limits of quantitation”.
